Ends that are not written are not given here. Peptide text beside a SMILES is read from it.
How the values were obtained:
MCF-7/AZ cells = test: Collagen type I invasion assay; type: cell-based, human; conditions: 24 hours post-treatment; 1 μM, 100 nM and 10 nM; positive if collagen-invasion or cell-stretching at minimum 2 consecutive concentrations; n = 3
Procedure: Morphology changes of MCF-7/AZ cells were investigated using previously described methods [12]. […] Peptide solutions (S1 Table) (> 80% purity; all from GL Biochem, Shanghai, China) were prepared using ultrapure water and DMSO, obtaining final peptide concentrations of 1 μM (maximum 0.05% DMSO), 100 nM and 10 nM after 1:10 dilution using growth medium. […] To quantify these visual results, the number of cells containing invasive extensions were counted and compared to the total number of cells in the field.

Stability in cell medium = type: in vitro ADME; conditions: cell medium in Krebs-Henseleit buffer, 37°C
Procedure: (§1) In vitro chemical and metabolic stability was determined in cell medium and human plasma, respectively, using previously described procedures. In brief, 100 μg of peptide was incubated in Krebs-Henseleit buffer pH 7.4 with cell medium/plasma (500 μl) at 37°C while shaking. […] The enzyme reaction was further stopped by heating the solution at 95°C for 5 minutes. Next, the samples were centrifuged to precipitate the denatured proteins and the supernatant analyzed using UPLC-PDA. Appropriate placebo solutions were similarly prepared. Assuming first-order kinetics, the rate constant k was obtained from ln(Pt/Pt0) = -kt, from which the half-life was determined as t1/2 = ln(2)/k.

[1] = Stability in human plasma; type: in vitro ADME; conditions: human plasma in Krebs-Henseleit buffer
Procedure: as §1

in vitro = conditions: human, Caco-2
Caco-2 monolayer = test: Caco-2 permeability assay; conditions: for intestinal permeability (in words): Caco-2 monolayer, 10 μM in HBSS
[2] = Krebs-Henseleit buffer pH 7.4 with cell medium, 0, 6 and 24 hours, first-order kinetics, read-out: Cell medium half-life (converted)
[3] = human, pH 7.4, footnote a, human plasma, 37°C, sampled up to 120 minutes, read-out: calculated half-life in plasma
[4] = human, pH 7.4, human plasma, Krebs-Henseleit buffer pH 7.4, 37°C, 0, 30 and 120 minutes, first-order kinetics, read-out: Plasma half-life (converted)

Molecule | half-life (Stability in cell medium; [2]) [h] | half-life [1, 3] [h] | half-life [1, 4] [h] | intestinal permeability (in words) (Caco-2 monolayer) | Papp A→B at 120 min, 10 μM (in vitro) [nm/s] | further results
ARNQT [PhrA] | – | – | – | – | – | tumour cell invasion through a type I collagen extracellular matrix (morphology scoring) (MCF-7/AZ cells): did not induce invasive characteristics
NNWNN [EDF, NNWNN] | 16.2 | 13.2 | > 13 | impermeable | – | Papp at 120 min, 10 μM (in vitro): < 0.029 nm/s
EKMIG [PhrG, EKMIG] | – | 13.2 | > 13 | does not show any absorption from the intestinal lumen | < 0.069 | half-life (Stability in cell medium; pH 7.4, Krebs-Henseleit buffer pH 7.4 with cell medium, 0, 6 and 24 hours, first-order kinetics, read-out: Cell medium half-life (converted)): 160 h; half-life (Stability in cell medium; pH 7.4, footnote a, sampled up to 24 hours, read-out: calculated half-life in cell medium): 158 h; Papp B→A at 120 min, 10 μM (in vitro): 0.137 nm/s
NC(=O)C[C@H](NC(=O)[C@H](Cc1c[nH]c2ccccc12)NC(=O)[C@@H](N)CC(N)=O)C(=O)O [EDF-analogue, NWN] (H-Asn-Trp-Asn-OH; N-terminus and C-terminus assumed) | 42 | – | 4.47 | can pass the intestinal barrier | 1.41 | efflux ratio at 120 min, 10 μM (in vitro): 1.1; efflux ratio change using the PepT1 substrate LY (Caco-2 monolayer; 10 μM peptide plus dipeptide LY (10 μM)): doubled; intestinal permeability (in words) (Caco-2 monolayer; listed as NWN): low intestinal permeability kinetics; absorption in humans (in vivo) corresponding to in vitro Papp values (Caco-2 monolayer; in vivo-in vitro correlation studies ref 15, 33): 5–10%
EMRKSNNNFFHFLRRI [CSP] | 45.8 | – | – | – | – | half-life ([1]; human plasma, Krebs-Henseleit buffer pH 7.4, 37°C, 0, 30 and 120 minutes, first-order kinetics, read-out: Plasma half-life (converted)): 8.73 h
